Data taken from US10647745B2, “Compound for treating sequelae of ischemic cerebral stroke” (priority 2015, dated 2020).
Residues, ends and D or L forms follow the SMILES beside them.

What was measured:
[1] = Body weight of rats in 1.5-hour ischemia/reperfusion model; type: in vivo, Sprague-Dawley (SD) rats; details: 3.6 mg/kg i.p. once a day
Experimental: (§1) Sprague-Dawley (SD) rats, male, weighing 280-320 g, clean, feeding, conditions: room temperature of 20-25° C., humidity of 30-60%, well ventilated, ad libitum diet; the animals were acclimatized in the feeding environment for three days prior to the experiment.
(§2) The rats were anesthetized with 4% chloral hydrate (350 mg/kg, ip.) and then were fixed in a supine position. A midline ventral neck incision was made, the right common carotid artery was separated and snared with two sutures for further use. Then, the internal carotid artery and external carotid artery were separated, and the external carotid artery was ligatured. The separated common carotid artery was ligatured at its proximal end with a thread, and the blood flow of the same was blocked at its distal end with a bulldog clamp. A small opening was cut therebetween and a nylon suture (4-0) which is heated at one end into a bead-like shape (having a diameter of <0.3 mm) was inserted into the small opening. The bulldog clamp was removed, and the nylon suture was gently advanced to the origin of the anterior cerebral artery (18-20 mm), thereby causing arterial ischemia in brain by blocking the blood supply of the cerebral artery. The skin was sutured and was sterilized with tincture of iodine. […]

[2] = test system: right cerebral artery ischemia/reperfusion model in rats; assay: Neurologic deficit score in rat 1.5-hour ischemia/reperfusion model; type: in vivo, Sprague-Dawley (SD) rats; details: 3.6 mg/kg i.p. once a day, vs model group without compound
Experimental: as §1
as §2, with “opening.” for “opening. The bulldog clamp was removed, and the nylon suture was gently advanced to the origin of the anterior cerebral artery (18-20 mm), thereby causing arterial ischemia in brain by blocking the blood supply of the cerebral artery. The skin was sutured and was sterilized with tincture of iodine.”
Neurologic deficit scores were assessed for the above experimental animals according to the following procedure before the beginning of experiment and 24 hours, 1 day, 3 days, 7 days, 14 days, 28 days, 56 days, and 112 days after the beginning of experiment; Score rules: see Zea Longer score and NSS score, full score of 10; […]

CC(C)CC(NC(=O)C(CCC(N)=O)NC(=O)C(NC(=O)C(CO)NC(=O)C(Cc1c[nH]cn1)NC(=O)C(N)C(C)C)C(C)C)C(=O)NC(Cc1ccc(O)cc1)C(=O)O (stereo not shown) [compound of formula (III)] (H-VHSVQLY-OH; configuration not given here)
weight ([1]; I1.5R+1 week+dosing for 4 weeks, vs model group without compound): gradually increased weight | weight ([1]; I1.5R+2 weeks+dosing for 4 weeks, vs model group, weight data said not demonstrative (groups differed before dosing)): gradually increased weight | neuroethology score (neurologic deficit score) ([2]; I1.5R+1 week+dosing for 4 weeks, statistically significant in 2nd, 3rd, 4th, 5th and 7th week after operation): gradually declined neuroethology score | neurological scores ([2]; I1.5R+2 weeks+dosing for 4 weeks, statistically significant at fifth week after operation): declined from the beginning of the administration
